Test results published in US7807185B2, “Methods of inhibiting growth of bacteria, yeast, fungus, and virus with Pseudomonas lindbergii and Bacillus coagulans extracellular products” (Ganeden Biotech, Incorporated, priority 1997, dated 2010).

Columns and labels:
Type in all cases: cell-based
Details in all cases: 18 hr at 30° C.
[1] = system: various opportunistic bacterial pathogens; assay: in vitro bacterial pathogen screen, zone of inhibition (DIFCO BACTROL Disk Set)
Description: The ability of Bacillus coagulans to inhibit various opportunistic bacterial pathogens was quantitatively ascertained by use of an in vitro assay. This assay is part of a standardized bacterial pathogen screen (developed by the U.S. Food and Drug Administration (FDA)) and is commercially available on solid support disks (DIFCO® BACTROL® Disk Set). To perform the assay, potato-dextrose plates (DIFCO®) were initially prepared using standard procedures. The plates were then individually inoculated with each of the bacteria (approximately 1.5×10^6 CFU) to be tested, so as to form a confluent bacterial bed.
Inhibition by Bacillus coagulans was subsequently ascertained by placing approximately 1.5×10^6 CFU of Bacillus coagulans in 10 μl of broth or buffer, directly in the center of the potato-dextrose plate, with one test locus being approximately 8 mm in diameter per plate. A minimum of three test loci were used for each assay. The negative control consisted of a 10 μl volume of a sterile saline solution, whereas the positive control consisted of a 10 μl volume of glutaraldehyde. The plates were then incubated for approximately about 18 hr at 30° C., at which time the zones of inhibition were measured. […]

four species of Candida = assay: in vitro zone of inhibition assay on potato-dextrose plates, Candida
Method: Each of the yeast pathogens and their ATCC accession numbers are illustrated in FIG. 4.
In the in vitro inhibition assay, potato-dextrose plates (DIFCO®, Detroit, Mich.) were prepared using standard procedures and were inoculated individually with a confluent bed about 1.7×10^6 of the four species of Candida. Inhibition by Bacillus coagulans was tested by placing on the plate about 1.5×10^6 colony forming units (CFU) in 10 μl of broth or buffer, plated directly in the center of the potato-dextrose plate with one test locus of about 8 mm in diameter per plate. A minimum of three tests were performed for each inhibition assay. The negative control consisted of a 10 μl volume of a sterile saline solution, whereas the positive control consisted of a 1 μl volume of Miconazole cream.
The plates were then incubated for approximately 18 hr at 30° C., at which time the zones of inhibition were measured. As designated herein, “excellent inhibition” means the zone was 10 mm or greater in diameter; and “good inhibition” means the zone was greater than 2 mm in diameter, but less than 10 mm in diameter.

[2] = system: various species of the fungus Trichophyton; assay: in vitro zone of inhibition assay on potato-dextrose plates, Trichophyton
Method: In the assay, potato-dextrose plates (DIFCO®, Detroit, Mich.) were prepared using standard procedures and were inoculated individually with a confluent bed (about 1.7×10^6) of various species of the fungus Trichophyton. The tested fungal strains of Trichophyton species (available from the American Type Culture Collection (ATCC; 10801 University Boulevard, Manassas, Va. 20110-2209)) and their ATCC accession numbers, as well as the results of in vitro inhibition by Bacillus coagulans are illustrated in FIG. 3.
Inhibition by Bacillus coagulans was ascertained by placing on the plate approximately 1.5×10^6 colony forming units (CFU) in 10 μl of broth or buffer, plated directly in the center of the potato-dextrose plate, with one test locus per plate. The size of each test locus was approximately 8 mm in diameter and a minimum of three tests were performed for each inhibition assay. The negative control consisted of a […] volume of sterile saline solution, whereas the positive control consisted of a […] volume 2% Miconazole (1-[2-(2,4-dichlorophenyl)-2-[(2,4-dichlorophenyl)methoxy]methyl-[…] within an inert cream.
The plates were then incubated for approximately 18 hr at 30° C., at which time the zones of inhibition were measured. […]

SMILES	zone of inhibition diameter ([1]; 10 μl volume of glutaraldehyde, average of three tests)	inhibition grade (zone of inhibition) [1]	zone of inhibition diameter (four species of Candida; 1 μl volume of Miconazole cream, average of three tests)	inhibition grade (zone of inhibition) (four species of Candida)	zone of inhibition diameter ([2]; 10 ml volume 2% Miconazole in inert cream, mean average of three tests)	inhibition grade (zone of inhibition) [2]
O=CCCCC=O [glutaraldehyde]	approximately 16.2 mm	excellent				
Clc1ccc(COC(Cn2ccnc2)c2ccc(Cl)cc2Cl)c(Cl)c1 (stereo not drawn) [positive control]			approximately 8.7 mm	good inhibition (the zone was greater than 2 mm in diameter, but less than 10 mm in diameter)	approximately 8.5 mm	good inhibition (the zone was greater than 2 mm in diameter, but less than 10 mm in diameter)
